From publication PMC11763264, “Antibacterial and Antifungal Activities of Linear and Cyclic Peptides Containing Arginine, Tryptophan, and Diphenylalanine” (Antibiotics, 2025)
In brackets after ≈: the same amount, converted by molar mass.

Key:
Assay in all cases: microbe, parasite or virus in culture
A. fumigatus (Af-293) = type: cell-based, Aspergillus fumigatus; settings: RPMI 1640 with 2% D-glucose, HEPES, 10^6 cells/mL, 24 and 48 h at 35 °C, no visible growth, triplicates, repeated twice
Description: (§1) The antifungal activity of all ten synthesized linear and cyclic peptides was evaluated against C. albicans (ATCC 60193), C. parapsilosis (ATCC 22019), and A. fumigatus (AF-293). Fluconazole and amphotericin B were used as positive controls for this study. The MIC was determined at concentrations in wells with no visible fungal growth.
A. fumigatus (Af-293) was cultured on Sabouraud dextrose agar (SDA) (Lot #3431660, Oxoid) for 48–72 h at 35 °C to obtain fresh and mature colonies which reached the proper sporulation then used to prepare the inoculum. The colonies were covered with Phosphate-Buffered Saline (PBS) containing 0.025% Tween-20, scraped from the plate, and carefully collected into a sterile tube. The suspension was centrifuged at 3000 RPM for 5 min after the separation between conidia and hyphae. The supernatant was discarded, and the pellet was resuspended in 5 mL of PBS.
Peptide concentrations of 50, 25, 12.5, 6.25, and 3.1 μg/mL were tested in triplicate. Each well of a 96-well plate was inoculated with the prepared inoculum suspension, which was diluted with RPMI 1640 medium containing L-glutamine, supplemented with 2% D-glucose, and the pH adjusted using HEPES buffer. The plates were incubated for 50 min at 35 °C to achieve a final cell concentration of 10^6 cells/mL. The control wells contained the same inoculum without any compound. The plates were then incubated for 24 and 48 h at 35 °C. Fungal growth was visualized, and the minimum inhibitory concentration (MIC) was determined as the lowest peptide concentration, where no growth was observed.

C. albicans (ATCC 60193) = type: cell-based, Candida albicans; settings: Candida albicans, ATCC60193; RPMI 1640 with 2% D-glucose, HEPES, 10^6 cells/mL, 24 h at 37 °C, no visible growth; triplicates, repeated twice
Description: as §1
(§2) In this study, C. albicans and C. parapsilosis were cultured on Yeast Peptone Dextrose (YPD) agar containing 1% w/v yeast extract, 2% w/v peptone, 2% w/v D-glucose, and 1.5% agar. A single colony from the agar was selected and cultured in Tryptone soy broth supplemented with 0.1% D-glucose, then incubated for 24 h at 37 °C. The cells were washed twice with PBS by centrifugation at 2000 RPM for 5 min. The pellet was resuspended in 5 mL of PBS, diluted in RPMI 1640 with L-glutamine, supplemented with 2% D-glucose, and the pH adjusted using HEPES buffer. The suspension was then incubated for 50 min at 35 °C to achieve a final cell concentration of 10^6 cells/mL.
(§3) Peptide concentrations of 50, 25, 12.5, 6.25, and 3.1 μg/mL were tested in triplicate and repeated twice. Each well of a 96-well plate was inoculated with the prepared inoculum suspension, which was diluted with RPMI media to a final volume of 200 μL per well. The control well received the same inoculum without any compound. The plates were incubated for 24 h at 37 °C. Fungal and microbial growth were visually observed in the control wells, and the minimum inhibitory concentration (MIC) was determined as the lowest concentration at which no growth was detected in the wells. Amphotericin B was used as a standard antifungal drug.

[1] = test system: C. parapsilosis (ATCC 22019); type: cell-based, Candida parapsilosis; settings: Lodderomyces parapsilosis, ATCC22019; RPMI 1640 with 2% D-glucose, HEPES, 10^6 cells/mL, 24 h at 37 °C, no visible growth; triplicates, repeated twice
Description: as §1, §2, §3

B. subtilis (ATCC-6633) = type: cell-based, Bacillus subtilis; settings: ATCC-6633, 24 h
Description: (§4) The antibacterial activity of all ten synthesized linear and cyclic peptides was evaluated against MRSA (ATCC BAA-1556), S. aureus (ATCC 29213), E. faecium (ATCC 700221), S. pneumoniae (ATCC 51938), E. faecalis (ATCC 29212), B. subtilis (ATCC-6633), K. pneumoniae (ATCC BAA-1705), P. aeruginosa (ATCC 27883), and E. coli (ATCC 25922). Meropenem and daptomycin were used as positive controls for this study. Certain peptides are marked as “NT” (not tested) against specific bacterial strains based on initial screening data. […] The MIC was determined by micro-broth dilution protocol, where the minimal concentrations were determined to be in wells with no visible bacterial growth.
(§5) All bacterial experiments were carried out in a laminar flow hood (Labconco, Kansas City, MO, USA). The bacterial strains were cultured following the guidelines set by the Clinical Laboratory Standards Institute (CLSI). Antibacterial assays were performed using a standard microtiter dilution method as described in previous studies. The minimum inhibitory concentration (MIC) refers to the lowest peptide concentration that inhibits bacterial growth in wells with no visible bacterial growth. MIC was determined by micro-broth dilution. Bacteria were cultured overnight in 6 mL of Luria Broth (LB). A stock solution of the peptide was prepared in water and DMSO, and a test compound solution with a concentration of 256 µg/mL was made in LB. Meropenem, with a solubility of 8 mg/mL, was prepared as a stock solution at 4 mg/500 µL. An aliquot of the overnight bacteria culture was diluted in normal saline (NS, 1 mL) until achieving a 0.5 McFarland turbidity (1.5 × 10^8 bacterial cell CFU/mL). A 0.5 McFarland compared solution (60 µL) was added to Mueller Hinton Broth (MH) 8940 µL to generate a 1/150 dilution. A 200 µL test compound solution was added to the first well of a 96-well plate, and the remaining wells (2–12) were filled with 100 µL of MH media using a multi-channel pipette from a sterile reservoir. A concentration of […] of the tested peptides was prepared from a stock solution of the samples for testing in Muller−Hinton broth MH media. Peptides stock solution was dissolved in 5% DMSO in water, and the final concentration of DMSO in the first well of assay plate was 2.5% DMSO/H2O and diluted across the assay plate.
(§6) A 100 µL sample from well 1 was pipetted into well 2, and the solution was mixed thoroughly by pipetting up and down. Next, 100 µL was transferred from well 2 to well 3, followed by thorough mixing. This 2-fold serial dilution process continued through well 11, with no additions made to well 12. The final 100 µL from well 11 was discarded. After completing the serial dilution, each well (1–12) contained 100 µL of solution. The bacterial culture in MH media was vortexed and transferred to a sterile reservoir, from which 100 µL was added to each well using a 12-channel pipette. (Note: The dilutions were further diluted upon adding the bacterial solution; for example, the concentration in well 1 started at […] after the addition of the bacterial culture.) The plates were incubated overnight at 37 °C for 24 h. All experiments were performed in triplicate and repeated twice, with controls consisting of bacteria in MH media and positive controls of daptomycin or meropenem.

S. aureus (ATCC 29213) = type: cell-based, Staphylococcus aureus; settings: ATCC 29213, 24 h
Description: as §4, §5, §6

MRSA (ATCC BAA-1556) = type: cell-based, Methicillin-Resistant Staphylococcus aureus; settings: ATCC BAA-1556, 24 h
Description: as §4, §5, §6

E. faecium (ATCC 700221) = type: cell-based, Enterococcus faecium; settings: ATCC 700221, 24 h
Description: as §4, §5, §6

[2] = test system: S. pneumoniae (ATCC 51938); type: cell-based, Streptococcus pneumoniae; settings: ATCC 51938, 24 h
Description: as §4, §5, §6

E. faecalis (ATCC 29212) = type: cell-based, Enterococcus faecalis; settings: ATCC 29212, 24 h
Description: as §4, §5, §6

Row | Structure (SMILES) | MIC (A. fumigatus (Af-293); Aspergillus fumigatus) [µM] | MIC (C. albicans (ATCC 60193)) [µM] | MIC [1] [µM] | MIC (B. subtilis (ATCC-6633)) [µM] | MIC (S. aureus (ATCC 29213)) [µM] | MIC (MRSA (ATCC BAA-1556)) [µM] | MIC (E. faecium (ATCC 700221)) [µM] | MIC [2] [µM] | MIC (E. faecalis (ATCC 29212)) [µM] | MIC (A. fumigatus (Af-293)) [µM]
1 | C[C@@H]1[C@H](O)[C@@H](C)/C=C/C=C/C=C/C=C/C=C/C=C/C=C/[C@H](O[C@@H]2O[C@H](C)[C@@H](O)[C@H](N)[C@@H]2O)C[C@@H]2O[C@](O)(C[C@@H](O)C[C@@H](O)[C@H](O)CC[C@@H](O)C[C@@H](O)CC(=O)O[C@H]1C)C[C@H](O)[C@H]2C(=O)O [Amphotericin B, reference compound] | 0.84 (≈ 0.776 µg/mL) | 0.42 (≈ 0.388 µg/mL) | 0.42 (≈ 0.388 µg/mL) |  |  |  |  |  |  | 
2 | CCCCCCCCCC(=O)N[C@@H](Cc1c[nH]c2ccccc12)C(=O)N[C@H](CC(N)=O)C(=O)N[C@@H](CC(=O)O)C(=O)N[C@@H]1C(=O)NCC(=O)N[C@@H](CCCN)C(=O)N[C@@H](CC(=O)O)C(=O)N[C@H](C)C(=O)N[C@@H](CC(=O)O)C(=O)NCC(=O)N[C@H](CO)C(=O)N[C@@H]([C@H](C)CC(=O)O)C(=O)N[C@@H](CC(=O)c2ccccc2N)C(=O)O[C@@H]1C [Daptomycin, reference compound] |  |  |  | 0.3 (≈ 0.486 µg/mL) | 0.62 (≈ 1 µg/mL) | 1.2 (≈ 1.94 µg/mL) | 1.2 (≈ 1.94 µg/mL) | 4.9 (≈ 7.94 µg/mL) | 9.87 (≈ 16 µg/mL) | 
3 | OC(Cn1cncn1)(Cn1cncn1)c1ccc(F)cc1F [Fluconazole, reference compound] | > 209 | 4.9 (≈ 1.5 µg/mL) | 3.3 (≈ 1.01 µg/mL) |  |  |  |  |  |  | >209
